“And” between values parts separate entries of the source, which are not always exact repeats. Identical values can stand only once. “Also recorded” adds a separate entry of the source. Square brackets hold non-standard residues; d marks the D form. Peptide text beside a SMILES is read from it. * marks the point of attachment. Sta = CC(C)C[C@H](N)[C@@H](O)CC(=O)O; Isovaleryl = CC(C)CC(=O)*; Nle = CCCC[C@H](N)C(=O)O

The target in this assay is TcpJ type 4 prepilin peptidase (TFPP) (Vibrio cholerae serotype O1, UniProt A5F385, P151Q/Q149P/S169T). Type of assay: biochemical.
Regarding `CC(=O)N[C@@H](CC(C)C)C(=O)N[C@@H](CC(C)C)C(=O)N[C@H](C=O)CCCNC(=N)N` [Leupeptin], the “% Cleavage” value came out at 85%.
`CCN1C(=O)C=CC1=O` [NEM]: the “% Cleavage” value turned out to be 30% and the “Effect on TcpJ peptidase activity (in words)” value (“Effect” below) is “partial effects”.
Take `O=S(=O)(F)Cc1ccccc1` [PMSF]: the “% Cleavage” value was 98% and 68%; the “Effect” value is listed as “partial effects”.
In the case of `CCCC[C@@H](C=O)NC(=O)[C@H](CC(C)C)NC(=O)[C@H](CC(C)C)NC(C)=O` [Calpain inhibitor I] (Ac-Leu-Leu-[Nle]-aldehyde), the “% Cleavage” value stood at 87%.
In the case of `CC(C)CC(=O)N[C@H](C(=O)N[C@H](C(=O)N[C@@H](CC(C)C)[C@@H](O)CC(=O)N[C@@H](C)C(=O)N[C@@H](CC(C)C)[C@@H](O)CC(=O)O)C(C)C)C(C)C` [Pepstatin] (Isovaleryl-VV[Sta]A[Sta]-OH), the “% Cleavage” value was 95% and 92% and 74%; the “Effect” value is given as “complete insensitivity; also recorded: completely resistant”.
With Aprotinin, the “% Cleavage” value is 100%.
With `Cl.NCCc1ccc(S(=O)(=O)F)cc1` [Pefabloc SC], the “% Cleavage” value was 62% and 50%; the “Effect” value is on record as “partial effects”.
For `CC(C)C[C@H](NP(=O)(O)O[C@@H]1O[C@@H](C)[C@H](O)[C@@H](O)[C@H]1O)C(=O)N[C@@H](Cc1c[nH]c2ccccc12)C(=O)O` [Phosphoramidon], the “% Cleavage” value was 89%.
As for `O=c1oc(Cl)c(Cl)c2ccccc12` [3,4-DCI], the “% Cleavage” value was 89% and 54%.
For the compound `CC(C)C[C@H](NC(=O)[C@@H](O)[C@H](N)Cc1ccccc1)C(=O)O` [Bestatin], the “% Cleavage” value is given as 81%.

For the origin of these results see US8609087B2, “Compounds and methods for identifying compounds which inhibit a new class of aspartyl proteases” (priority 1999, dated 2013).
